# Assay results: ChEMBL document CHEMBL3885861, “Open TG-GATES”
# Species: Rattus norvegicus
# Experiment: Open TG-GATES - Regimen: Single
# Assay type: toxicity, organism-based, Sprague-Dawley
# Parameters: regimen Single, gender Male, age 6 weeks
# Conditions: in vivo, po, 300 mg/kg, route gavage, dose level Low; for APTT / Bas / Eos / Fbg / Hb / Ht / Lym / MCH / MCHC / MCV / Mono / Neu / PT / Plat / RBC / Ret / WBC: tissue Blood; for KIDNEY_L / KIDNEY_R / KIDNEY_TOTAL: tissue Kidney; for LIVER: tissue Liver; for A/G / ALP / ALT / AST / BUN / CRE / Ca / Cl / DBIL / GLC / IP / K / LDH / Na / PL / RALB / TBIL / TC / TG / TP / gamma-GTP: tissue Plasma
structure (smiles),measurement,setting,value
CCN1CCCC1CNC(=O)c1cc(S(N)(=O)=O)ccc1OC (configuration not stated) [SULPIRIDE],TERMINAL_BW,3 h,202.3 g
same,APTT,3 h,16.9 s
same,Bas,3 h,0%
same,Eos,3 h,0.8%
same,Fbg,3 h,268.2 mg/dL
same,Hb,3 h,12.9 g/dL
same,Ht,3 h,40.1%
same,Lym,3 h,83%
same,MCH,3 h,20.5 pg
same,MCHC,3 h,32.3%
same,MCV,3 h,63.3 fL
same,Mono,3 h,2.6%
same,Neu,3 h,12.6%
same,PT,3 h,13.5 s
same,Plat,3 h,123.5 x10_4/uL
same,RBC,3 h,633 x10_4/ul
same,Ret,3 h,8.1%
same,WBC,3 h,80.2 x10_2/uL
same,KIDNEY_L,3 h,0.9 g
same,KIDNEY_R,3 h,0.9 g
same,KIDNEY_TOTAL,3 h,1.9 g
same,LIVER,3 h,9.4 g
same,A/G,3 h,0.9
same,ALP,3 h,1455.4 IU/L
same,ALT,3 h,35.6 IU/L
same,AST,3 h,72.8 IU/L
same,BUN,3 h,9.8 mg/dL
same,CRE,3 h,0.2 mg/dL
same,Ca,3 h,11.1 mg/dL
same,Cl,3 h,105.8 meq/L
same,DBIL,3 h,0.004 mg/dL
same,GLC,3 h,173 mg/dL
same,IP,3 h,8.2 mg/dL
same,K,3 h,4.2 meq/L
same,LDH,3 h,124.4 IU/L
same,Na,3 h,141.6 meq/L
same,PL,3 h,143.4 mg/dL
same,RALB,3 h,2.5 g/dL
same,TBIL,3 h,0.062 mg/dL
same,TC,3 h,77.8 mg/dL
same,TG,3 h,74.2 mg/dL
same,TP,3 h,5.2 g/dL
same,gamma-GTP,3 h,1.6 IU/L
same,TERMINAL_BW,6 h,199.9 g
same,APTT,6 h,16.7 s
same,Bas,6 h,0%
same,Eos,6 h,1%
same,Fbg,6 h,287.4 mg/dL
same,Hb,6 h,13.1 g/dL
same,Ht,6 h,41.1%
same,Lym,6 h,78%
same,MCH,6 h,20.5 pg
same,MCHC,6 h,31.9%
same,MCV,6 h,64.2 fL
same,Mono,6 h,2.8%
same,Neu,6 h,17.4%
same,PT,6 h,13.5 s
same,Plat,6 h,122.9 x10_4/uL
same,RBC,6 h,641.2 x10_4/ul
same,Ret,6 h,8.4%
same,WBC,6 h,95.5 x10_2/uL
same,KIDNEY_L,6 h,0.9 g
same,KIDNEY_R,6 h,0.9 g
same,KIDNEY_TOTAL,6 h,1.8 g
same,LIVER,6 h,8.9 g
same,A/G,6 h,0.9
same,ALP,6 h,1332.4 IU/L
same,ALT,6 h,36.4 IU/L
same,AST,6 h,68.4 IU/L
same,BUN,6 h,9.6 mg/dL
same,CRE,6 h,0.2 mg/dL
same,Ca,6 h,11 mg/dL
same,Cl,6 h,104.8 meq/L
same,DBIL,6 h,0.01 mg/dL
same,GLC,6 h,179.4 mg/dL
same,IP,6 h,9.4 mg/dL
same,K,6 h,4.3 meq/L
same,LDH,6 h,125.8 IU/L
same,Na,6 h,141.2 meq/L
same,PL,6 h,137.6 mg/dL
same,RALB,6 h,2.5 g/dL
same,TBIL,6 h,0.074 mg/dL
same,TC,6 h,75.4 mg/dL
same,TG,6 h,59 mg/dL
same,TP,6 h,5.2 g/dL
same,gamma-GTP,6 h,1.2 IU/L
same,TERMINAL_BW,9 h,198.2 g
same,APTT,9 h,16.3 s
same,Bas,9 h,0.2%
same,Eos,9 h,0.8%
same,Fbg,9 h,287.2 mg/dL
same,Hb,9 h,13.3 g/dL
same,Ht,9 h,41%
same,Lym,9 h,77.4%
same,MCH,9 h,20.6 pg
same,MCHC,9 h,32.3%
same,MCV,9 h,63.7 fL
same,Mono,9 h,2.4%
same,Neu,9 h,19%
same,PT,9 h,13.4 s
same,Plat,9 h,129.5 x10_4/uL
same,RBC,9 h,644.4 x10_4/ul
same,Ret,9 h,7.6%
same,WBC,9 h,83.6 x10_2/uL
same,KIDNEY_L,9 h,0.9 g
same,KIDNEY_R,9 h,0.9 g
same,KIDNEY_TOTAL,9 h,1.8 g
same,LIVER,9 h,7.7 g
same,A/G,9 h,0.9
same,ALP,9 h,1287.4 IU/L
same,ALT,9 h,34.4 IU/L
same,AST,9 h,70.4 IU/L
same,BUN,9 h,7.4 mg/dL
same,CRE,9 h,0.1 mg/dL
same,Ca,9 h,10.4 mg/dL
same,Cl,9 h,106.8 meq/L
same,DBIL,9 h,0 mg/dL
same,GLC,9 h,168.4 mg/dL
same,IP,9 h,9.9 mg/dL
same,K,9 h,3.7 meq/L
same,LDH,9 h,116.4 IU/L
same,Na,9 h,142.6 meq/L
same,PL,9 h,118.4 mg/dL
same,RALB,9 h,2.5 g/dL
same,TBIL,9 h,0.07 mg/dL
same,TC,9 h,70 mg/dL
same,TG,9 h,29.8 mg/dL
same,TP,9 h,5.2 g/dL
same,gamma-GTP,9 h,1.2 IU/L
same,TERMINAL_BW,24 h,215.3 g
same,APTT,24 h,17.5 s
same,Bas,24 h,0.2%
same,Eos,24 h,1%
same,Fbg,24 h,305 mg/dL
same,Hb,24 h,13.5 g/dL
same,Ht,24 h,41.4%
same,Lym,24 h,78%
same,MCH,24 h,20.9 pg
same,MCHC,24 h,32.6%
same,MCV,24 h,64.1 fL
same,Mono,24 h,2.6%
same,Neu,24 h,17.4%
same,PT,24 h,12.7 s
same,Plat,24 h,130.7 x10_4/uL
same,RBC,24 h,646 x10_4/ul
same,Ret,24 h,7%
same,WBC,24 h,93.3 x10_2/uL
same,KIDNEY_L,24 h,0.9 g
same,KIDNEY_R,24 h,0.9 g
same,KIDNEY_TOTAL,24 h,1.8 g
same,LIVER,24 h,9.9 g
same,A/G,24 h,0.9
same,ALP,24 h,1728.6 IU/L
same,ALT,24 h,44.2 IU/L
same,AST,24 h,66.4 IU/L
same,BUN,24 h,14.8 mg/dL
same,CRE,24 h,0.2 mg/dL
same,Ca,24 h,11.1 mg/dL
same,Cl,24 h,106.4 meq/L
same,DBIL,24 h,0.014 mg/dL
same,GLC,24 h,180.4 mg/dL
same,IP,24 h,7.4 mg/dL
same,K,24 h,4.4 meq/L
same,LDH,24 h,179.2 IU/L
same,Na,24 h,141.6 meq/L
same,PL,24 h,156.2 mg/dL
same,RALB,24 h,2.7 g/dL
same,TBIL,24 h,0.064 mg/dL
same,TC,24 h,79.2 mg/dL
same,TG,24 h,134.4 mg/dL
same,TP,24 h,5.7 g/dL
same,gamma-GTP,24 h,1 IU/L
